Results from patent US6252094A (The Scripps Research Institute, priority 1999, dated 2001).
Values belong to the compound of their own block, whether it stands above or below them.

What was measured:
non-serum proteins = test: Displacement of MPT group by non-serum proteins
Text: (§1) However, the release of taxol from taxol-2'-MPT can also be catalyzed by serum protein and by proteins having nucleophilic groups. […] Dialysis of the protein:taxol intermediate indicates a dissociation period of hours or days. Displacement of the MPT group by serum proteins seems to be specific for such serum proteins. […] The precise nature of the bonding between the protein and taxol has not been characterized. Scheme 2 illustrates alternative pathways for MPT release.

immunoglobulins = test: Displacement of MPT group by immunoglobulins
Text: as §1

cervical carcinoma = test: Cytotoxicity (XTT, 72 hours), cervical carcinoma
human leukemia = test: Cytotoxicity (XTT, 72 hours), human leukemia
[1] = system: A549 non-small cell lung adenocarcinoma; test: Efficacy in lung tumor xenograft nude mouse model
tubulin [2] = test: Microtubule polymerization-depolymerization measurements (turbidity at 340 nm); type: biochemical; conditions: for suppression of calcium chloride promoted depolymerization: 10^-6 M drug, 1.0 mg/mL tubulin, 0.25 mM CaCl2, 37° C.
Method: Tubulin polymerization-depolymerization measurements are illustrate in FIG. 3. Negative controls are shown with triangles; positive taxol controls are shown with diamonds; and taxol-2'-MPT, i.e., compound 2 is shown with dots.
More particularly, measurement were performed in 96 well plates at 37° C. following the protocol of R. Merlock and W. Wrasidlo (Analytical Biochemistry 1993, in press). Calcium chloride addition is indicated by the arrow. In each case, 1.0 mM GTP was used to promote the initial polymerization of tubulin. Negative control employed tubulin (1.0 mg/mL) alone, CaCl2 (0,25 mM) added after 20 minutes. Positive taxol control employed tubulin (1.0 mg/mL) with taxol (10^-6 M) and CaCl2 (0.25 mM) added after 20 minutes. The experimental taxol-2'-MPTemployed tubulin (1.0 mg/mL) with taxol-2'-MPT (10^-6) and CaCl2 (0.25 mM) added after 20 minutes. Turbidity was measured as optical density at 340 nm using a microplate reader (Molecular Devices Thermomax).

[3] = Stability/kinetics of taxol release from taxol-2'-MPT in plasma; type: in vitro ADME, human
Method: (§2) Due to a difference in retention time using our standard HPLC conditions (see FIG. 1) and differing ultraviolet absorption maxima (1280 /1254 =1.6 for 2 and 0.3 for 1), the stability of 2 was easily assayed by HPLC (FIG. 1). […] In phosphate buffered saline (PBS) or ammonium acetate--phosphate buffer systems of pH 6.0 to 7.3, 2 is stable at 25° C. for over 21 days. Taxol-2'-MPT (2) is, however, unstable in 5% HCl (pH 1.1) and brine.
(§3) Under these conditions 20% of total is recovered. More particularly, Taxol-2'-MPT (2) was dissolved in the aqueous system with the aid of sonication for five minutes. Aliquots were then removed at the times shown and partitioned into methylene chloride to quench the reaction. Samples were then analyzed using a Waters Maxima HPLC instrument equipped with an autoinjector (3.9×300 mm C18 column equipped with a precolumn. The flow rate was 1.5 mL/minute. The eluent gradient A-B extended over 30 minutes. "A" was 80% 80 mM ammonium acetate, pH 6.0. "B" was 100% methanol. An ultraviolet diode array detector was employed. The ratio of compound 2 (Rf 16.2 min.) to taxol (compound 1, Rf 16.8 min.) remaining was determined from the relative areas of the peaks after normalization with previously determined calibration curves.

metastatic melanoma = test: Cytotoxicity (XTT, 72 hours), metastatic melanoma
serum protein = test: Displacement of MPT group by serum protein
Text: as §1

[4] = Stability of taxol-2'-MPT by HPLC (solid state, aqueous media); type: physicochemical
Method: as §2

[5] = Solubility in water by HPLC (sonication, centrifugation, injection of supernatant); type: physicochemical
Method: (§4) The solubility and partition coefficient data for 2 and taxol were determined using an HPLC method.
(§5) Solubility was found by forming a solution in water with the aid of sonication for five minutes, centrifugation of the samples, and injection of the supernatant. The values reported were normalized using calibration curves constructed for both compounds by preparing known concentrations in the range 1×10^-6 to 1×10^-3 M in methylene chloride and subjecting to HPLC analysis under the same conditions. […] Partition coefficients were determined by dissolving the compound in the organic phase, shaking the resulting solution with water for ten minutes, and analyzing each phase by HPLC as above.

[6] = Kinetics of taxol release from taxol-2'-MPT in aqueous solutions at 25° C.; type: physicochemical; conditions: sterile water, pH 6.2 PBS or 5% dextrose, over 11 minutes
Method: as §3

[7] = Self-assembly: optical clarity, OD at 340 nm, TEM; type: physicochemical; conditions: for morphology of self-assembled structures in buffered solutions: 1 mM in 100 mM PBS
Text: Transmission electron microscopy (TEM) confirmed the presence of supramolecular structures in these solutions. […] It is likely that the long term stability of these solutions is due, at least in part, to stabilization provided by this structured environment.

serum albumen = test: Displacement of MPT group by serum albumin
Text: as §1

[8] = Octanol/water partition coefficient by HPLC
Method: as §4, §5

albumin = conditions: sera; cited from earlier work
tubulin [9] = conditions: background; cited from earlier work
[10] = background statement; cited from earlier work
[11] = water, 5% dextrose, 1.5% saline

- MPT-displacing activity of non-serum proteins (non-serum proteins): seemed to lack this activity
- effectiveness in displacing MPT group, immunoglobulins (immunoglobulins): particularly effective
- conversion to taxol in vivo ([1]; inferred from the xenograft results): converted rapidly to taxol in vivo
- degradation in human plasma ([3]; human plasma, 37° C.): breaks down rapidly
- recovery ([3]; human, plasma, methylene chloride extraction, read-out: total recovered from plasma): 20%
- total recovered from plasma ([3]; plasma, methylene chloride extraction): 20%
- time to complete conversion of 2 into taxol in plasma ([3]; plasma, methylene chloride extraction, 25° C. per FIG. 1): ≤ 10 min
- discharge of taxol in sera ([3]; sera): rapidly discharges taxol in sera
- stability in 5% HCl and brine ([4]; 5% HCl (pH 1.1) and brine): unstable
- stability period in buffer ([4]; PBS or ammonium acetate-phosphate buffer, pH 6.0 to 7.3, 25° C.): over 21 days
- stability in aqueous media (discussion) ([4]; aqueous media, physiological pH and ion strength): essentially completely stable
- stability in most aqueous media (discussion) ([4]; most aqueous media): remarkably stable
- onset of slow degradation [4, 11]: > 4 days
- stability in water, 5% dextrose, and 1.5% saline [4, 11]: stable for several days
- degradation during solubility and partition studies [5]: No degradation
- solubility ([5]; water, HPLC, table value): 1700 µM
- taxol release in aqueous media [6]: no taxol release is observed
- morphology of self-assembled structures in unbuffered solutions ([7]; 1 mM in H2O, TEM): self-assembled spherical nanostructures
- diameter of fibrillar aggregates ([7]; TEM): ca. 80 Å
- helical twist of aggregates ([7]; TEM): about 7
- length of fibrillar aggregates ([7]; TEM): up to 800 Å
- concentration above which haze is exhibited ([7]; buffered solutions): greater than 1×10^-3 M
- critical concentration (exponential increase in OD at 340 nm) ([7]; buffered solutions, 340 nm): 400 µM
- diameter of spherical structures ([7]; freshly sonicated solutions, TEM): about 50 Å
- optical appearance of water solutions ([7]; water, all concentrations examined): optically clear
- effectiveness in displacing MPT group, serum albumin (serum albumen): particularly effective
- logP [8]: 1.7
SMILES: CC(=O)O[C@H]1C(=O)[C@@]2(C)[C@H]([C@H](OC(=O)c3ccccc3)[C@]3(O)C[C@H](OC(=O)[C@H](Oc4cccc[n+]4C)[C@@H](NC(=O)c4ccccc4)c4ccccc4)C(C)=C1C3(C)C)[C@]1(OC(C)=O)CO[C@@H]1C[C@@H]2O [taxol-2'-MPT]
- cytotoxicity level, cervical carcinoma (cervical carcinoma): Extremely high
- cytotoxicity level, human leukemia (human leukemia): Extremely high
- control of tumor growth ([1]; I.P. day 1, 3, 7, taxol 18.0 mg/kg, taxol-2'-MPT 23.9 mg/kg, preliminary data): at least comparable to that of taxol
- suppression of calcium chloride promoted depolymerization (tubulin [2]): not by taxol-2'-MPT
- microtubule polymerization-depolymerization (tubulin [2]; GTP-saline controls and taxol as comparators): very similar to GTP-saline controls and drastically different from taxol
- effect on tubulin-microtubule equilibria (tubulin [2]; buffered aqueous assay): does not affect the tubulin-microtubule equilibria
- binding to tubulin (tubulin [2]; inferred from the polymerization assay): does not appear to bind to tubulin in the manner of taxol
- cytotoxicity level, metastatic melanoma (metastatic melanoma): Extremely high
- displacement of MPT group on contact with serum protein (serum protein): observed to displace its MPT group and form a protein:taxol intermediate
- degradation products detected ([4]; HPLC): taxol and the pyridinone that results from hydrolysis of pyridinium salts
- solubility compared with clinically relevant dosages (3 to 30 mM) ([5]; range of aqueous systems): higher than the clinically relevant dosages
- water solubility compared with parent taxol ([5]; relative to taxol): significantly more soluble in water than the parent taxol
- morphology of self-assembled structures in buffered solutions ([7]; TEM): self-assembled helical fibrous nanostructures
- morphology of self-assembled structures in buffered solutions ([7]; TEM, listed as 2): Uniform aggregates of fibrillar structure

SMILES: CC(=O)O[C@H]1C(=O)[C@@]2(C)[C@H]([C@H](OC(=O)c3ccccc3)[C@]3(O)C[C@H](OC(=O)[C@H](O)[C@@H](NC(=O)c4ccccc4)c4ccccc4)C(C)=C1C3(C)C)[C@]1(OC(C)=O)CO[C@@H]1C[C@@H]2O [taxol, reference compound]
- cytotoxicity level, cervical carcinoma (cervical carcinoma): Extremely high
- cytotoxicity level, human leukemia (human leukemia): Extremely high
- suppression of calcium chloride promoted depolymerization (tubulin [2]): suppressed by taxol
- microtubule stabilization by taxol recovered from human plasma treated with 2 (tubulin [2]; taxol recovered from plasma): exhibited the expected microtubule stabilization
- taxol binding to albumin (albumin): ca. 85%
- cytotoxicity level, metastatic melanoma (metastatic melanoma): Extremely high
- effect of taxol binding on tubulin (tubulin [9]): prevents its polymerization and the formation of microtubules
- water solubility [10]: less than 1.5×10^-6 molar
- Partition Coefficient [octanol]/[water] [8]: > 10000
